According to paper PMC10746708, “A small molecule iCDM-34 identified by in silico screening suppresses HBV DNA through activation of aryl hydrocarbon receptor” (Cell Death Discovery, 2023):

Columns and labels:
[1] = system: phospho-SAMHD1; assay: Western blotting of phospho-SAMHD1 in HepG2-NTCP-C4 cells; format: cell-based, human; settings: 30 μM, 1 day
Procedure: HepG2-NTCP-C4 cells were treated with 30 μM iCDM-17 and iCDM-34 for 1 day. The cells were lyzed with 20 mM TrisHCl pH 7.5 containing 100 mM NaCl, 10 mM EDTA, 1% TritonX-100, 1% Sodium deoxycholate, PhosSTOP (Roche), Complete EDTA free. The lysates were sonicated 30 s and mixed for 1 h with rotation at 4 °C. The lysates were centrifuged at 15,000 rpm for 10 min at 4 °C. The supernatants were analyzed by Western blotting using anti-phospho-SAMHD1 (Thr592) (Cell signaling technology, 89930, 1/1000), anti-SAMHD1 (Cell signaling technology, 49158, 1/1000), and β−actin (Santa Cruz, 1/1000).

[2] = system: CDK1/2; assay: CDK1/2 mRNA qPCR in HepG2-NTCP-C4 cells; format: cell-based, human; settings: 30 μM
Procedure: HepG2-NTCP-C4 cells were plated on a 96-well plate in DMEM/F12 and GlutaMAX Supplement (Thermo Fisher Scientific) containing 10% fetal bovine serum, 10 mM HEPES, 5 μg/ml insulin, […] hydrocortisone, 200 U/ml penicillin, and 200 μg/ml streptomycin. After 1 day, the cells were treated with 30 μM iCDM-17 and iCDM-34 for 3, 8, 24 h. Total RNA was purified form the cells using Agencourt RNA advance (Beckman Courter). cDNA was synthesized using PrimeScript RT master mix (Takara Bio). CDK1, CDK2, β-actin mRNA amount was quantified by qPCR.
mRNA expression levels were measured by qPCR using specific primers or sets of specific primers and probe. RNA was reverse transcribed using PrimeScript RT Master Mix (Takara Bio, Shiga, Japan) to synthesize complementary DNA (cDNA). OAS1,glyceraldehyde 3-phosphate dehydrogenase (GAPDH), β-actin mRNA expression levels were measured using specific primers and TB Green Premix Ex Taq II (Takara Bio). AhR (Hs00169233_m), CDK1 (Hs00938777_m), CDK2 (Hs01548894_m) mRNA expression levels were measured using specific probe and primer sets (Thermo Fisher Scientific, Waltham, MA, USA) and Probe qPCR mix (Takara Bio) in a CFX96 Touch Real-Time PCR Detection System (Bio-Rad Laboratories, Hercules, CA, USA). […] Expression levels were determined using the 2^–ΔΔCt method and were normalized to endogenous β-actin mRNA expression levels.

[3] = system: HBV genotype C; assay: Anti-HBV activity in HBV-infected PXB cells (HBV DNA by qPCR); format: cell-based
Procedure: (§1) PXB cells (primary cultured human hepatocytes) were purchased from PhoenixBio (Higashi-Hiroshima, Japan) and cultured on collagen type I-coated 96- or 24-well plates in hepatocyte clonal growth medium at 37 °C and 5 % CO2 as previously described. RealTime-Glo MT Cell Viability Assay (Promega) and XTT assay were performed according to a previously established protocol.
PXB cells were plated on 96-well plate and infected with three genome equivalents per cell of HBV C_AT [33], and the medium was changed every 3 or 4 days. […] After treatment with these compounds, cellular DNA, medium DNA, and total RNA were automatically purified as per our previously established protocol. RNA purification of total RNA from cultured cells in the 24-well plate was performed using the RNeasy Mini Kit (Qiagen, Germantown, MD, USA) according to the manufacturer’s instructions.
HBV DNA copy numbers were determined using TaqMan Gene Expression Master Mix (Thermo Fisher Scientific) or Probe qPCR Mix (Takara Bio), specific primers, and probes in a qPCR system (Light Cycler 96 System, Roche, Basel, Switzerland or CFX96 Touch Real-Time PCR Detection System, Bio-Rad Laboratories, Hercules, CA, USA). The specific primers and probe used for detection of HBV DNA were as follows: forward primer: 5′-[…]-3′, reverse primer: 5′-[…]-3′, and probe: 5′-[FAM] […][TAM]-3′.

[4] = system: JAK/STAT signaling; assay: Western blotting of phospho-STAT1, STAT2, STAT3 in HCV replicon cells; format: cell-based, human; settings: 30 μM, 24 h
Procedure: HCV replicon cells were treated with 30 μM CDM-3008, iCDM-17, and iCDM-34 for 1 day. The cells were lyzed with 1 x SDS sample buffer containing PhosStop, Complete EDTA free, and 1 mM EDTA. After sonication for 30 s, the lysates were centrifuged at 12,000g for 10 min at 4 °C, and then the supernatants were collected. After reducing the 20 μg of supernatants with 50 mM DTT at 98 °C for 2 min, the samples were separated by SDS-PAGE. STAT1, STAT2, STAT3, pSTAT1, pSTAT2, and pSTAT3 were detected by Western blotting using anti-STAT1 (9175, 1/1000), STAT2 (72604, 1/1000), STAT3 (12640, 1/1000), pSTAT1 (Y701) (7649, 1/1000), pSTAT2 (Y690) (88410, 1/1000), and pSTAT3 (Y705) (9145, 1/1000) antibodies (Cell signaling technology, Massachusetts, USA).

[5] = system: PXB cells; assay: Cell viability of HBV-infected PXB cells (RealTime-Glo MT); format: cell-based; settings: 3 and 30 µM, with or without 10 nM ETV, 7 days
Procedure: as §1

[6] = system: AhR signaling pathway; assay: CYP mRNA qPCR in 3D cultured FLC-4 cells; format: cell-based, human; settings: 1, 10 μM, 1 day
Procedure: The human hepatocellular carcinoma cell line FLC-4 was cultured on micro-space cell culture plates (Elplasia SQ-200, -100, -24, Kuraray, Tokyo, Japan) maintained at 37 °C and 5 % CO2 according to the manufacturer’s protocol. FLC-4 cells suspended in DMEM/Ham’s F12 medium supplemented with 10% heat-inactivated fetal bovine serum, 100 U/mL penicillin G, and 100 μg/mL streptomycin were seeded at a density of 8.0 × 10^5 cells/well and cultured for 3 days. The medium was replenished every 72 h, completely removed, and replaced with serum-free medium containing 1–10 µM iCDM-34 or vehicle (DMSO). Total RNA was isolated from cells and reverse transcribed complementary DNA was subjected to quantitative qPCR. mRNA expression was determined using TaqMan Gene Expression Assays (Hs00167927_m1 for CYP1A2, Hs00604506_m1 for CYP3A4, for Hs00426397_m1 for CYP2C9; Thermo Fisher Scientific, Waltham, MA, USA). Expression levels were determined using the 2^–ΔΔCt method and were normalized to endogenous GAPDH mRNA expression levels.

O=C(Nc1ccc(Br)cc1)c1ccn(Cn2cc([N+](=O)[O-])cn2)n1 [iCDM-34]
phospho-SAMHD1 levels [1]: lower than pre-treatment levels | CDK2 mRNA expression levels ([2]; after 3 and 8 h): significantly suppressed | CDK1 mRNA levels ([2]; after 8 and 24 h): significant suppression | medium HBV DNA ([3]; 30 µM, 7 days): inhibited | effect of combination with ETV on cellular HBV DNA ([3]; 3 and 30 µM with 10 nM ETV, 7 days): additive effects | cellular HBV DNA ([3]; 3 and 30 µM, 7 days, dose-dependent): decreased | IC50 ([3]; Hepatitis B virus, 168 h, HBV genotype C-infected PXB cells, 0.03–100 µM for 7 days, qPCR, read-out: half maximal inhibitory concentration, cellular HBV DNA): 19.7 µM | phosphorylation of STAT1, STAT2, and STAT3 [4]: not induced | cytotoxicity (cell viability) [5]: no cytotoxicity | CYP1A2 mRNA expression [6]: increased expression
